Measurements published in patent US11590128B2, “Combination therapy of a type II anti-CD20 antibody with a selective BCL-2 inhibitor” (GENENTECH, INC., priority 2012, dated 2023).

Tests used:
DLBCL SU-DHL-4 xenograft = DLBCL SU-DHL-4 xenograft model, combination followed by single-agent GDC-0199, Example 4; format: in vivo, mice; settings: GDC-0199 orally for 21 days, GA101 1 mg/kg QW for 3 weeks; alone or in combination
Procedure: At day 22 tumor bearing mice in the combination cohort continued to be dosed with GDC-0199 alone at 100 mg/kg for an additional 24 days.
As explained above, a cohort of tumor bearing mice was also dosed with GDC-0199 alone for an additional 24 days after combination treatment ended on day 21 (QD×45). Under the x-axis, treatment periods are denoted by solid black lines ( ? ) for the combination cohorts while the continued single agent GDC-0199 treatment is denoted by dashed black line ( ? ).

[1] = system: human Z138 mantle cell lymphoma cells; assay: Tumor growth inhibition study in vivo, Z138 mantle cell lymphoma xenograft, Example 3; set-up: species or system SCID beige mice; settings: day 35 after tumor cell inoculation; antibodies 1 mg/kg i.p. once weekly x3; GDC-0199 100 mg/kg p.o. once daily for 17 days
Procedure: Animals. […] Continuous health monitoring was carried out on regular basis.
Monitoring. Animals were controlled daily for clinical symptoms and detection of adverse effects.
Treatment of animals. […] The corresponding vehicle was administered on the same days.

[2] = system: SU.DHL-4 diffuse large B-cell lymphoma xenograft; assay: NHL xenograft model of aggressive lymphoma (DLBCL SU.DHL-4), Example 1; format: in vivo, mice
From the text: The study used a non-Hodgkin's lymphoma (NHL) xenograft model of aggressive lymphoma, the diffuse large B-cell lymphoma (DLBCL) derived cell line SU.DHL-4.
In FIG. 1, the dose of GDC-0199 is expressed as free base equivalents in mg/kg of body weight. Results are expressed as the fitted tumor volume as determined by linear mixed effects modeling for each treatment group vs. time in days, where Day 0 is the first day of treatment.

Row | Compound | tumor growth inhibition (TGI) (DLBCL SU-DHL-4 xenograft) | tumor growth inhibition compared to the control group [1] | tumor growth inhibition (TGI) ([2]; after three weeks of therapy (treatment ended day 21)) | tumor growth inhibition (TGI) ([2]; at day 31 (10 days after dosing ended)) | antitumor outcome (in words) ([2]; obinutuzumab 1 mg/kg IV once a week for 3 weeks, GDC-0199 100 mg/kg QD for 21 days, alone or combined)
1 | CC1(C)CCC(CN2CCN(c3ccc(C(=O)NS(=O)(=O)c4ccc(NCC5CCOCC5)c([N+](=O)[O-])c4)c(Oc4cnc5[nH]ccc5c4)c3)CC2)=C(c2ccc(Cl)cc2)C1 [GDC-0199, 2-(1H-pyrrolo[2,3-b]pyridin-5-yloxy)-4-(4-((2-(4-chlorophenyl)-4,4-dimethylcyclohex-1-enyl)methyl)piperazin-1-yl)-N-(3-nitro-4-(((tetrahydro-2H-pyran-4-yl)methyl)amino)phenylsulfonyl)benzamide] | 24% | 59% | 80% | 25% | stasis followed by tumor growth delay
2 | rituximab: type I anti-CD20 antibody | – | 32% | – | – | –
